We go through five molecules from patent US11040119B2, “Compositions and methods for assessing neuromuscular function” (Biogen MA Inc., priority 2013, dated 2021).

Entries after “also recorded” stand apart in the source; their conditions may differ.

The conditions of data set [1]: prepared radiopharmaceutical; cited from earlier work.
The conditions of data set [2]: in vivo; cited from earlier work.
Data set [3] is described as follows: Simultaneous dual-radiotracer SPECT/CT imaging of 99mTc-Sestamibi and 201Tl-Cl uptake. It counts as in vivo, mouse and rat. The note with it: FIG. 1; for retention in muscle: i.v. single injection of both agents, imaging 3 hours later. On the procedure:
This example describes an imaging approach for assessing skeletal muscle health by administering ^99mTc-Sestamibi and ^201Tl—Cl both in a single intravenous injection and then simultaneously detecting their accumulation into skeletal muscle through SPECT imaging via distinct radiation energy windows, which are specific for each isotope. Through this approach, each imaging agent alone, as well as the change in uptake of one agent relative to the other, was measured, permitting evaluation of multiple physiological processes in muscle simultaneously.
Imaging agents (^99mTc-Sestamibi and ^201Tl-Chloride) were ordered from commercial radiopharmacies for calibration and delivery on each day of SPECT imaging. Imaging agents were administered by intravenous injection in the lateral tail-vein. Animals were returned to their cages after injection for the distribution period or placed directly on the imaging system for SPECT acquisition, depending on the imaging protocol and desired time-points. For the imaging session, subjects were anesthetized using a gas mixture of isoflurane and oxygen. In-vivo SPECT and CT data were acquired using the NanoSPECT/CT® (Bioscan, Washington, D.C.), a dual modality imaging system that combines a 4-headed SPECT camera with a computed tomography (CT) acquisition system on the same axis of rotation. During imaging, subjects were placed on a heated bed with integrated anesthesia delivery and bed heating. The animals' body temperatures were maintained at 36 to 37° C. for the duration of image acquisition. Each imaging time-point included three scans: a planar x-ray scout scan, an x-ray CT scan for anatomical reference (6-9 min., 45-65 KVp, 180 angular projections per FOV), and a SPECT scan (20-90 min., 20 angular projections per FOV). SPECT data were reconstructed using the HiSPECT processing module (Scivis GmbH, Gottingen, Germany). […] Uptake and concentration of radiotracer were quantified in select regions-of-interest (ROI) using the VivoQuant™ post-processing suite. […]

Data set [4] has as its system skeletal muscle. Put plainly: Effect of neuromuscular stimulation with edrophonium on 99mTc-Sestamibi and 201Tl-Cl uptake into muscle (SPECT/CT). It is filed as in vivo, rats. On the procedure: In order to assess the action of neuromuscular stimulation on ^99mTc-Sestamibi and ^201Tl—Cl uptake into muscle we used the acetylcholinesterase inhibitor edrophonium (0.2 mg/kg, i.v.) to enhance ongoing neuromuscular synaptic transmission. We used three different cohorts of animals (n=3). In one cohort we examined baseline neuromuscular activity by giving the ^99mTc-Sestamibi and ^201Tl—Cl (listed as m/t in figure) at time zero and acquiring images under brief isoflurane anesthesia at 30 minutes post injection. Another cohort received edrophonium injection immediately following the m/t dosing but prior to the imaging under anesthesia. The last cohort received the edrophonium 30 minutes prior to the m/t dosing. This approach standardized the anesthesia and imaging phase of the experiment while making the edrophonium dose timing the only variable.
FIG. 4 is an exemplary schematic diagram of an experiment assessing the impact of edrophonium on the pharmacokinetics of ^99mTc-Sestamibi and ^201Tl—Cl. ^99mTc-Sestamibi and ^201Tl—Cl were imaged in three cohorts of rats (n of 3 each): control/baseline; prior to injection of 0.2 mg/kg of edrophonium; following injection of 0.2 mg/kg of edrophonium. Whole body SPECT/CT images were collected 30 minutes post-injection of the mixed ^99mTc-Sestamibi and ^201Tl—Cl dose. The drugs' gamma emissions of the radioisotopes (^99mTc and ^201Tl) were collected in separate energy windows, permitting simultaneous imaging of the relevant radiopharmaceuticals. […] Thallium uptake was increased by the introduction of edrophonium in control rats as indicated qualitatively by brighter muscle uptake on a common scale.
However, either pre- or post-m/t, edrophonium dosing had no effect on ^99mTc-Sestamibi uptake into muscle. FIG. 6 depicts comparison of radiopharmaceutical uptake in skeletal muscle between two imaging paradigms. The ‘+’ represents subjects that received an edrophonium injection (i.v.) immediately after radiotracer administration. […] All other aspects of data collection were identical between the ‘+’ and ‘−’ scenarios. Quantitative units of radioactivity per volume was expressed as uptake: percent injected dose (% ID), activity (mCi, kBq).

Data set [5] has as its system skeletal muscle. Put plainly: Effect of continuous isoflurane anesthesia on muscle uptake of the two radiopharmaceutical agents (SPECT). It is filed as in vivo. The note with it: continuous anesthesia through 30 minute uptake period vs awake uptake period; right and left legs; FIG. 3. On the procedure: Imaging agents (^99mTc-Sestamibi and ^201Tl-Chloride) were ordered from commercial radiopharmacies for calibration and delivery on each day of SPECT imaging. Imaging agents were administered by intravenous injection in the lateral tail-vein. Animals were returned to their cages after injection for the distribution period or placed directly on the imaging system for SPECT acquisition, depending on the imaging protocol and desired time-points. For the imaging session, subjects were anesthetized using a gas mixture of isoflurane and oxygen. In-vivo SPECT and CT data were acquired using the NanoSPECT/CT® (Bioscan, Washington, D.C.), a dual modality imaging system that combines a 4-headed SPECT camera with a computed tomography (CT) acquisition system on the same axis of rotation. During imaging, subjects were placed on a heated bed with integrated anesthesia delivery and bed heating. The animals' body temperatures were maintained at 36 to 37° C. for the duration of image acquisition. […] Uptake and concentration of radiotracer were quantified in select regions-of-interest (ROI) using the VivoQuant™ post-processing suite.
This need for imaging under anesthesia in animals is not necessary in human imaging studies. […] Quantitative units of radioactivity per volume was expressed as uptake: percent injected dose (% ID), activity (mCi, kBq). […]

[6] abbreviates: edrophonium i.v. immediately after radiotracer administration vs none, FIG. 6.

Take ^99mTc-Teboroxime: the stability in data set [1] is 6 h. In addition, in data set [2], the biological half-life result is recorded as “short” and the extraction efficiency entry was “high”.

In the case of `[Cl][201Tl]` [^201Tl—Cl, ^201Thallium-Chloride], in data set [3], the retention in muscle result was “consistent retention”. In addition, in data set [3] (i.v., imaging 3 hours post-injection), the “muscle accumulation, extent relative to 99mTc-Sestamibi” value is recorded as “more widespread”.

`CC[N+](C)(C)c1cccc(O)c1` [edrophonium]: the “99mTc-Sestamibi uptake into muscle” value in data set [4] (edrophonium 0.2 mg/kg i.v., either pre- or post-m/t dosing, images 30 minutes post-injection) was “no effect”. Further, the “201Tl uptake into muscle” value in data set [4] (edrophonium 0.2 mg/kg i.v., pre- or post-m/t dosing vs baseline, images 30 minutes post-injection, FIG. 5) is “dramatically enhanced; also recorded: increased”. In addition, in data set [4] (setting [6]), the “99mTc-Sestamibi uptake in skeletal muscle, statistical evaluation” value was “not” and the “201Tl uptake in skeletal muscle, statistical evaluation” value was “highly significant edrophonium effect”.

Take `FC(F)OC(Cl)C(F)(F)F` (centres unmarked) [isoflurane]: the “accumulation of both agents (99mTc-Sestamibi and 201Tl-Cl) into muscle” value in data set [5] was “inhibited”.

`[C-]#[N+]CC(C)(C)OC.[C-]#[N+]CC(C)(C)OC.[C-]#[N+]CC(C)(C)OC.[C-]#[N+]CC(C)(C)OC.[C-]#[N+]CC(C)(C)OC.[C-]#[N+]CC(C)(C)OC.[Tc]` [^99mTc-Sestamibi]: in data set [3], the retention in muscle result is on record as “consistent retention”. In addition, in data set [1], the stability was 6 h. Besides, in data set [2], the biological half-life entry is “long” and the extraction efficiency entry is on record as “high”.
